Reference: ChEMBL document CHEMBL3045588, “Synthesis and Bleaching Activity of 3-Propargylthio-4-(substituted phenyl)-4H-1, 2, 4-triazoles” (1995)
Calls of active or inactive are those of the source. The rule behind the calls is not given here.

How the values were obtained:
Lactuca sativa [1] = assay: Bleaching activity against Lactuca sativa cv. Sacramento (lettuce) seedlings assessed as bleaching ratings at 1 ppm incubated for 4 days at 25 degC under 12 hr photoperiod; assay type: functional
Lactuca sativa [2] = assay: Bleaching activity against Lactuca sativa cv. Sacramento (lettuce) seedlings assessed as bleaching ratings at 3 ppm incubated for 4 days at 25 degC under 12 hr photoperiod; assay type: functional
Lactuca sativa [3] = assay: Bleaching activity against Lactuca sativa cv. Sacramento (lettuce) seedlings assessed as bleaching ratings at 5 ppm incubated for 4 days at 25 degC under 12 hr photoperiod; assay type: functional
Lactuca sativa [4] = assay: Bleaching activity against Lactuca sativa cv. Sacramento (lettuce) seedlings assessed as bleaching ratings at 10 ppm incubated for 4 days at 25 degC under 12 hr photoperiod; assay type: functional
Lactuca sativa [5] = assay: Bleaching activity against Lactuca sativa cv. Sacramento (lettuce) seedlings assessed as bleaching ratings at 25 ppm incubated for 4 days at 25 degC under 12 hr photoperiod; assay type: functional
Lactuca sativa [6] = assay: Bleaching activity against Lactuca sativa cv. Sacramento (lettuce) seedlings assessed as bleaching ratings at 50 ppm incubated for 4 days at 25 degC under 12 hr photoperiod; assay type: functional
Radish [7] = assay: Reduction in chlorophyll content in Raphanus sativus cv. Osaka (radish) seedlings at 100 uM incubated for 4 days at 25 degC under 12 hr photoperiod by spectrophotometry; assay type: functional, organism-based
Radish [8] = assay: Reduction in carotenoid content in Raphanus sativus cv. Osaka (radish) seedlings at 100 uM incubated for 4 days at 25 degC under 12 hr photoperiod; assay type: functional, organism-based
Radish [9] = assay: Reduction in phytoene accumulation in Raphanus sativus cv. Osaka (radish) seedlings at 100 uM incubated for 4 days at 25 degC under dark conditions relative to untreated control; assay type: functional, organism-based
Radish [10] = assay: Induction of phytoene accumulation in Raphanus sativus cv. Osaka (radish) seedlings at 10 to 100 uM incubated for 4 days at 25 degC under dark conditions; assay type: functional, organism-based
Radish [11] = assay: Induction of phytoene accumulation in Raphanus sativus cv. Osaka (radish) seedlings at 50 uM incubated for 4 days at 25 degC under dark conditions relative to untreated control; assay type: functional
Radish [12] = assay: Reduction in beta-carotene content in Raphanus sativus cv. Osaka (radish) seedlings at 10 to 100 uM incubated for 4 days at 25 degC under dark conditions; assay type: functional, organism-based
Radish [13] = assay: Reduction in chlorophyll content in Raphanus sativus cv. Osaka (radish) seedlings at 10 uM incubated for 4 days at 25 degC under dark conditions; assay type: functional, organism-based
Radish [14] = assay: Reduction in carotenoid content in Raphanus sativus cv. Osaka (radish) seedlings at 10 uM incubated for 4 days at 25 degC under dark conditions; assay type: functional, organism-based
Radish [15] = assay: Reduction in chlorophyll content in Raphanus sativus cv. Osaka (radish) seedlings at 10 uM incubated for 4 days at 25 degC under 12 hr photoperiod by spectrophotometry; assay type: functional; design: scale not given: the % may be the effect or the level left
Radish [16] = assay: Reduction in carotenoid content in Raphanus sativus cv. Osaka (radish) seedlings at 10 uM incubated for 4 days at 25 degC under 12 hr photoperiod; assay type: functional; design: scale not given: the % may be the effect or the level left
Radish [17] = assay: Reduction in chlorophyll content in Raphanus sativus cv. Osaka (radish) seedlings at 10 to 100 uM incubated for 4 days at 25 degC under 12 hr photoperiod by spectrophotometry; assay type: functional, organism-based
Radish [18] = assay: Reduction in carotenoid content in Raphanus sativus cv. Osaka (radish) seedlings at 10 to 100 uM incubated for 4 days at 25 degC under 12 hr photoperiod; assay type: functional, organism-based

C#CCSc1nncn1-c1ccc(Cl)c(Cl)c1
Activity (Lactuca sativa [1]): 0 | Activity (Lactuca sativa [2]): 2 | Activity (Lactuca sativa [3]): 3 | Activity (Lactuca sativa [4]): 4 | Activity (Lactuca sativa [5]): 4

C#CCSc1nncn1-c1ccc(C)cc1
Activity (Lactuca sativa [1]): 0 | Activity (Lactuca sativa [2]): 1 | Activity (Lactuca sativa [3]): 3 | Activity (Lactuca sativa [4]): 3 | Activity (Lactuca sativa [5]): 3

COCSc1nncn1-c1ccccc1
Activity (Lactuca sativa [4]): 0 | Activity (Lactuca sativa [5]): 0 | Activity (Lactuca sativa [6]): 0

c1ccc(CSc2nncn2-c2ccccc2)cc1
Activity (Lactuca sativa [4]): 1 | Activity (Lactuca sativa [5]): 1 | Activity (Lactuca sativa [6]): 2

CCSc1nncn1-c1ccccc1
Activity (Lactuca sativa [4]): 1 | Activity (Lactuca sativa [5]): 2 | Activity (Lactuca sativa [6]): 3

CCCSc1nncn1-c1ccccc1
Activity (Lactuca sativa [4]): 1 | Activity (Lactuca sativa [5]): 2 | Activity (Lactuca sativa [6]): 4

CCCS(=O)(=O)c1nncn1-c1ccccc1
Activity (Lactuca sativa [4]): 0 | Activity (Lactuca sativa [5]): 0 | Activity (Lactuca sativa [6]): 0

CCCCSc1nncn1-c1ccccc1
Activity (Lactuca sativa [4]): 0 | Activity (Lactuca sativa [5]): 1 | Activity (Lactuca sativa [6]): 2

C#CCSc1nncn1-c1ccccc1Cl
Activity (Lactuca sativa [1]): 0 | Activity (Lactuca sativa [2]): 0 | Activity (Lactuca sativa [3]): 0 | Activity (Radish [7]): inactive | Activity (Radish [8]): inactive | Activity (Lactuca sativa [4]): 0 | Activity (Lactuca sativa [5]): 0

C#CCSc1nncn1-c1ccc(Cl)cc1
Activity (Lactuca sativa [1]): 0 | Activity (Lactuca sativa [2]): 1 | Activity (Lactuca sativa [3]): 2 | Activity (Radish [9]): Active | Activity (Radish [10]): Active | fold change (FC) (Radish [11]): 150 | Activity (Radish [12]): Active | Activity (Radish [13]): Active | Activity (Radish [14]): Active | Activity (Radish [15]): 60% | Activity (Radish [16]): 60% | Activity (Radish [17]): Active | Activity (Radish [18]): Active | Activity (Lactuca sativa [4]): 3 | Activity (Lactuca sativa [5]): 4

C#CCSc1nncn1-c1ccc(OCC)cc1
Activity (Lactuca sativa [1]): 0 | Activity (Lactuca sativa [2]): 1 | Activity (Lactuca sativa [3]): 2 | Activity (Lactuca sativa [4]): 3 | Activity (Lactuca sativa [5]): 3

C=CCSc1nncn1-c1ccccc1
Activity (Lactuca sativa [4]): 0 | Activity (Lactuca sativa [5]): 0 | Activity (Lactuca sativa [6]): 0

Sc1nncn1-c1ccccc1
Activity (Lactuca sativa [4]): 0 | Activity (Lactuca sativa [5]): 0 | Activity (Lactuca sativa [6]): 0

CSc1nncn1-c1ccccc1
Activity (Lactuca sativa [4]): 0 | Activity (Lactuca sativa [5]): 0 | Activity (Lactuca sativa [6]): 0

C#CCSc1nncn1-c1cccc(Cl)c1
Activity (Lactuca sativa [1]): 0 | Activity (Lactuca sativa [2]): 2 | Activity (Lactuca sativa [3]): 3 | Activity (Radish [10]): Active | Activity (Radish [12]): Active | Activity (Radish [13]): Active | Activity (Radish [14]): Active | Activity (Radish [15]): 60% | Activity (Radish [16]): 60% | Activity (Radish [17]): Active | Activity (Radish [18]): Active | Activity (Lactuca sativa [4]): 3 | Activity (Lactuca sativa [5]): 4

C#CCSc1nncn1-c1ccc(C(F)(F)F)cc1
Activity (Lactuca sativa [1]): 0 | Activity (Lactuca sativa [2]): 1 | Activity (Lactuca sativa [3]): 2 | Activity (Lactuca sativa [4]): 3 | Activity (Lactuca sativa [5]): 3

C#CCSc1nncn1-c1ccccc1
Activity (Lactuca sativa [1]): 0 | Activity (Lactuca sativa [2]): 0 | Activity (Lactuca sativa [3]): 0 | Activity (Lactuca sativa [4]): 1 | Activity (Lactuca sativa [5]): 3 | Activity (Lactuca sativa [6]): 4

C#CCSc1nncn1-c1cccc(C(F)(F)F)c1
Activity (Lactuca sativa [1]): 0 | Activity (Lactuca sativa [2]): 1 | Activity (Lactuca sativa [3]): 2 | Activity (Lactuca sativa [4]): 3 | Activity (Lactuca sativa [5]): 3
